This note sets out measurements from ChEMBL document CHEMBL1157539, “Thousands of chemical starting points for antimalarial lead identification” (Nature, 2010).

In this experiment the test system is Plasmodium falciparum. Description: GSK_TCMDC: Inhibition of Plasmodium falciparum 3D7 in whole erythrocytes, using parasite LDH activity as an index of growth. The class given is functional, organism-based. The settings on record: Plasmodium falciparum, 3D7.
On to `CCc1cc2c3c(N)nc(N)nc3ccc2n1CC`, for which the XC50 was 10.3 nM.
For `NCc1ccc(CNCc2ccc(-c3ccc(-c4nc5cc(F)ccc5[nH]4)cc3)cc2)cc1` the value was 402 nM.
For `COc1ccc2nccc([C@@H](O)CN3CCC(NCc4ccc5c(c4)NC(=O)CS5)CC3)c2n1` the value was 747 nM; for `O=C(Nc1cccc(CN2CCCN(Cc3cccnc3)CC2)c1)c1cc2ccccc2s1`, 1470 nM; for `Cc1ccc2c(=NN=Cc3ccc(Cl)cc3)cc(C)[nH]c2c1`, 945 nM.
For `Oc1ccc(C2CNCCc3c2cc(O)c(OCc2ccccc2)c3Cl)cc1` (stereo not drawn) the value was 716 nM.
For the compound `O=C(Nc1ccc(CC(=O)N2CCc3cc(Cl)c(N4CCN(C/C=C/c5ccccc5)CC4)cc32)cc1)Nc1cccc([N+](=O)[O-])c1`, the XC50 was determined as 761 nM.
For `O=C(O)C[C@H](NC(=O)CCCNC(=O)c1cccc(-c2ccc(Cl)c(Cl)c2)c1)C(=O)O` the value was 881 nM; for `Fc1ccc2[nH]ccc(=NN=CC=Cc3ccccc3)c2c1`, 681 nM.
For `CN(Cc1cccc(C#N)c1)C1CCN(c2cc(NC(=O)c3ccc(F)cc3)ccn2)CC1` the value was 1070 nM.
For `Oc1cccc2c1CC(NCc1ccccc1)CC2` (stereo not drawn) the value was 887 nM.
`COc1cccc(C(O)CNc2ccnc(Nc3ccc(Cl)cc3)n2)c1` (stereo not drawn) registered an XC50 of 606 nM.
The compound `CCCCCCCc1cc(=O)c2ccccc2[nH]1` gave an XC50 of 317 nM.
Turning to `Cc1cc(Nc2cc(Cl)cc(Cl)c2)nc(N)n1`, the XC50 is 1140 nM.
In the case of `COc1ccc(CN(C)CC(O)COc2ccc(NC(=O)c3cccc4c(=O)c5cccc(OC)c5[nH]c34)cc2)cc1OC` (stereo not drawn) it was 780 nM; in that of `CC(=O)Nc1cccc(C(=O)Nc2cccc(-c3ccc(-c4nc5cc(F)ccc5[nH]4)cc3)c2)c1`, 764 nM.
For `O=C(/C=C/c1ccc(Cl)c(Cl)c1)NCCCCCN1CCC(NC(=O)Nc2ccc(F)cc2F)CC1`, the XC50 came out at 739 nM.
In the case of `COc1ccc(CC(=O)NC(CCN2CCC3(CC2)CN(S(C)(=O)=O)c2ccccc23)c2ccc(Cl)c(Cl)c2)cc1OC` (stereo not drawn) it was 998 nM; in that of `Cc1ccc(Oc2cnn(C)c(=O)c2Nc2cccc(C(=O)NCCc3ccccn3)c2)c(C)c1`, 494 nM; in that of `Cc1ccc2c(C3=CCN(CCCCC4(C)C(=O)Nc5c(F)cccc54)CC3)c(C)[nH]c2c1` (stereo not drawn), 265 nM.
In the case of `Cc1cc(C)cc(Oc2c(C(F)(F)F)oc3c(CN4CC(C)OC(C)C4)c(O)ccc3c2=O)c1` (stereo not drawn) it was 939 nM; in that of `Nc1nccc2ccc(-c3ccsc3)cc12`, 332 nM.
For `Cc1ccc(OCCCON2C(=N)N=C(N)NC2(C)C)cc1C` the value was 3.2 nM; for `COc1cccc(OC2CCN(C(=O)c3cc(C(C)(C)C)nn3Cc3ccccc3)CC2)c1`, 254 nM.
With `O=S(=O)(c1ccc(OC(F)(F)F)cc1)C1CC2CCC(C1)N2S(=O)(=O)c1ccc(Cl)c(C(F)(F)F)c1` (stereo not drawn), the XC50 was 560 nM.
`COc1ccccc1CC(C)NCC(O)c1cccc(Cl)c1` (stereo not drawn): the XC50 is 811 nM.
For `CS(=O)(=O)Nc1ccc(-c2ccc3ccnc(N)c3c2)cc1` the value was 614 nM.
In the case of `Nc1nc(N)c2c(ccc3c2ccn3Cc2ccc3c(c2)OCO3)n1` it was 3.2 nM; in that of `c1cc(CN2CCCCC2)cc(-c2ccc(-c3nc4ccccc4[nH]3)cc2)c1`, 889 nM.
In the case of `CC1(CCc2ccccc2)N=C(N)N=C(N)C1c1ccc(Cl)c(Cl)c1` (stereo not drawn) it was 316 nM.
The compound `Cc1cc(NC(=O)c2cccs2)ccc1OC1CCN(Cc2ccc(F)cc2)CC1` showed an XC50 of 481 nM.
For `Cc1cccc2nc(-c3ccc(-c4ccc(CNCC(C)C)cc4)cc3)[nH]c12` the value was 405 nM; for `CN(C)CCN(C)Cc1cccc(-c2ccc3c(Nc4cc(O)c(Cl)cc4F)ccnc3c2)c1`, 237 nM.
`Cc1noc(C)c1-c1cccc(CNCc2cccc(-c3ccc(-c4nc5cccc(C)c5[nH]4)cc3)c2)c1` had an XC50 of 191 nM.
Regarding `CCCc1cc(C(=O)N[C@@H](Cc2ccccc2)[C@H](O)CNC(C)(C)c2cccc(OC)c2)c(F)c(N2CCCC2=O)c1`, the XC50 was determined as 95.7 nM.
In the case of `Cc1cc(N[C@@H](Cc2ccccc2)C(=O)NCCc2ccccc2)nc(NCc2ccccc2C)n1` it was 879 nM; in that of `O=C(Nc1cc(C(F)(F)F)cc(C(F)(F)F)c1)Nc1cc(C(F)(F)F)cc(C(F)(F)F)c1`, 727 nM.
The compound `CCCCn1c(-c2ccco2)nc2c(c(=O)c3ccccc3n2C)c1=O` registered an XC50 of 1240 nM.
For `Oc1ccc2[nH]c(-c3cccs3)nc2c1CN1CCC(N2CCCC2)CC1`, the XC50 amounted to 642 nM.
In the case of `Cc1c(CNCCCNc2cc(=O)c3ccccc3[nH]2)sc(C(F)F)c1Br`, the XC50 was 867 nM.
`COc1ccc2nc3cc(Cl)ccc3c(N)c2c1` gave an XC50 of 165 nM.
`CCOC(=O)CNC(=O)c1cc(=O)c2ccccc2o1`: the XC50 worked out at 210 nM.
For `Cc1c(OC(C)C)nc2ccccc2c1C(=O)N[C@H](c1cccc(F)c1)C1CC1` the value was 1090 nM; for `O=C(/C=C/c1ccc(Cl)c(Cl)c1)NCCCCCN1CCC(NC(=S)Nc2ccc(Cl)cc2Cl)CC1`, 738 nM.
The compound `COc1ccc2nccc([C@@H](O)CN3CCC(NC(=O)CCC(=O)c4cc(C(C)(C)C)ccc4OC)CC3)c2c1` displayed an XC50 of 846 nM.
Compound `O=C(CCCCCNC(=O)c1ccc(O)c(-c2ccc(Cl)c(Cl)c2)c1)NCCN1CCCC1` gave an XC50 of 980 nM.
`CC(=O)Nc1ccc(CN2CCC(NC(=O)c3ccc(-c4cccc(C(F)(F)F)c4)s3)CC2)cc1`: the XC50 amounted to 890 nM.
`CN(c1ccc2c(c1)nc(NC(=O)C1(c3cc(F)ccc3F)CC1)n2C)c1ccnc(Nc2cccc(CS(C)(=O)=O)c2)n1` showed an XC50 of 1100 nM.
For `Cc1cccc2nc(-c3ccc(-c4ccc(CNCCCN5CCCC5=O)cc4)s3)[nH]c12` the value was 749 nM; for `COc1ccc2nccc(N3CCC(CCNCc4ccc5c(n4)NC(=O)CO5)CC3)c2n1`, 998 nM; for `CCCOc1ccccc1C(=O)Nc1nonc1-c1ccc(OCC)c(OCC)c1`, 711 nM.
The compound `CCc1ccc(-c2cnc(N)c3cc(-c4ccnc(N)n4)ccc23)cc1` had an XC50 of 1350 nM.
`Cc1ccc(Nc2nccc(NCC(O)c3ccc(C(F)(F)F)cc3)n2)cc1` (stereo not drawn) came in with an XC50 of 491 nM.
For `O=C(Nc1ccccc1)N(Cc1ccccc1-c1cccc(CNC2CCCC2)c1)C1CCN(Cc2ccccc2)CC1` the value was 168 nM; for `O=C(NC1CCN(c2ccnc3ccccc23)C1)c1cccc(C(F)(F)F)c1` (stereo not drawn), 897 nM.
In the case of `Cc1ccc(NC(=O)Nc2ccc(Cl)c(C(F)(F)F)c2)cc1-c1ccc(C(=O)Nc2ccncc2)cc1` it was 264 nM; in that of `COc1ccc2c(ccc3c2ncc2c(=O)n(-c4ccccc4)[nH]c23)c1`, 520 nM; in that of `Cc1nc(C)c(-c2ccc(Oc3ccc(Cl)c(Cl)c3)cc2)c(O)c1Br`, 304 nM.
`c1ccc(CN2CCC(Nc3ccc(-c4c[nH]nc4-c4ccccn4)nc3)CC2)cc1` gave an XC50 of 799 nM.
`Cc1ccccc1NC(=S)NC1CCN(CCCCCNC(=O)/C=C/c2ccc(Cl)c(Cl)c2)CC1`: the XC50 was 795 nM.
`C[C@H](Cc1ccc(OCCCCCCOc2ccc(C[C@@H](C)NC(=O)[C@H](O)c3cccc(Cl)c3)cc2)cc1)NC[C@H](O)c1cccc(Cl)c1` yielded an XC50 of 381 nM.
As for `Cc1cccc(-c2nc3[nH]c(=O)cc(NC(=O)C(C)C)n3n2)c1`, the XC50 was found to be 421 nM.
Take `Cc1cccc(-c2ccc(NC(=O)Nc3ccc4nccc(N5CCN(C)CC5)c4c3)cc2C)n1`: the XC50 amounted to 212 nM.
For `CCC1CN(CCCn2c3ccccc3c3ccccc32)C(CC)CN1` (stereo not drawn) the value was 1080 nM.
For `N/C(=N\c1cccc(Cc2ccccc2)n1)NCc1ccccc1` the value was 863 nM.
In the case of `Cc1nnc(Sc2ncnc3scc(-c4ccc(F)cc4)c23)s1` it was 811 nM.
Compound `Cc1[nH]c2ccc(-c3ccccc3)cc2c(=O)c1Br` came in with an XC50 of 162 nM.
In the case of `CN(C)CCC1CCN(CCS(=O)(=O)c2cccc(Nc3ccc(-c4cccc(F)c4)cn3)c2)CC1` it was 1070 nM.
`N#Cc1ccc(C2CCN(CC[C@H](N)Cc3ccc(Cl)s3)CC2)cc1` came in with an XC50 of 1260 nM.
Take `Cc1cccc2nc(-c3cccc(-c4ccc(C(=O)NCc5ccccc5S(C)(=O)=O)cc4)c3)[nH]c12`: the XC50 worked out at 750 nM.
The compound `C(=N\Nc1nccc2sc(-c3cccnc3)cc12)/c1cccnc1` came in with an XC50 of 423 nM.
`Cc1noc(C)c1-c1cccc(CNCc2cccc(-c3ccc(-c4nc5cc(C(F)(F)F)ccc5[nH]4)s3)c2)c1` gave an XC50 of 166 nM.
For `Fc1ccc(N(c2nc(-c3cc(F)cc(C(F)(F)F)c3)cs2)C2CCNCC2)cc1` the value was 956 nM.
For `CC(=O)C1(c2ccccc2)CCN(CCC2(c3ccc(Cl)c(Cl)c3)CN(C(=O)Nc3cc(F)cc(F)c3)CCO2)CC1` (stereo not drawn) the value was 1480 nM; for `O=C(CSc1ccccn1)Nc1c(F)cccc1F`, 1210 nM.
Compound `COCCOc1ccc(Nc2nccc(-c3c(-c4cccc(NC(=O)c5c(F)cccc5F)c4)nn4ccccc34)n2)cc1F` showed an XC50 of 950 nM.
For `CC(Cc1ccc(OCCN2CCN(c3cccc(C(F)(F)F)c3)CC2)cc1)NCC(O)c1cccc(C(F)(F)F)c1` (stereo not drawn) the value was 181 nM; for `O=c1ccc(-c2nc3cc(Cl)c(Cl)cc3n2Cc2ccc(Cl)cc2Cl)c[nH]1`, 1110 nM; for `CCc1nn2c(Nc3ccncc3)cc(C)nc2c1-c1ccccc1`, 203 nM.
For `O=C(c1ccc2ccccc2n1)N1CCCc2cc(Br)ccc21` the value was 858 nM; for `CCc1sc(N2CCC(C)CC2)nc1C(=O)Nc1ccc(F)cc1C(F)(F)F`, 1090 nM; for `O=C(Nc1ccccc1F)NC1CCN(c2ccnc(Nc3ccc(F)cc3)n2)CC1`, 754 nM.
In the case of `Cn1c(Nc2cc(C(C)(C)C)on2)nc2cc(Nc3ccnc(Nc4ccc(CS(C)(=O)=O)cc4)n3)ccc21` it was 977 nM.
`O=C(Cn1cnc2c(nnn2Cc2ccccc2F)c1=O)Nc1ccc2c(c1)OCCO2` gave an XC50 of 949 nM.
Take `COc1cc(C(=O)Nc2cccc(-c3nc4ccccc4[nH]3)c2)ccc1OC(C)=O`: the XC50 is 762 nM.
Compound `COc1cccc(C(=O)Nc2nonc2-c2ccc(OC)c(OC)c2)c1` gave an XC50 of 801 nM.
For the compound `COc1ccc(C2CC(c3ccccc3O)=NN2C(=O)c2ccco2)cc1OC` (stereo not drawn), the XC50 was found to be 947 nM.
On to `c1ccc(-c2cc3cccc(-c4nc5cnccc5[nH]4)c3o2)cc1`, for which the XC50 came out at 115 nM.
